Laboratory results: ChEMBL document CHEMBL1150336, “Synthesis and antibacterial activity of novel pyrido[1,2,3-de][1,4]benzoxazine-6-carboxylic acid derivatives carrying the 3-cyclopropylaminomethyl-4-substituted-1-pyrrolidinyl group as a C-10 substituent” (J Med Chem, 2008)
Values after ≈ are worked out from the molar mass of the structure shown.

Tests used:
Enterococcus faecalis [1] = experiment: Antibacterial activity against vancomycin-resistant Enterococcus faecalis KU1866 after 18 hrs by agar dilution method; format: functional
Haemophilus influenzae = experiment: Antibacterial activity against Haemophilus influenzae IID983 after 18 hrs by agar dilution method; format: functional
Staphylococcus aureus [2] = experiment: Antibacterial activity against Staphylococcus aureus Smith infected in subcutaneously dosed ICR mouse administered 1 hr after bacterial challenge measured at 7 days post infection; format: functional; conditions: sc
Staphylococcus aureus [3] = experiment: Antibacterial activity against quinoline-resistant Staphylococcus aureus MS5935 containing double grlA and double gyrA mutation after 18 hrs by agar dilution method; format: functional
DNA gyrase [4] = target: T1, DNA gyrase (Staphylococcus aureus, UniProt P0A0K8+P20831); experiment: Inhibition of Staphylococcus aureus MS5935 wild type DNA gyrase-mediated supercoiling activity; format: protein-complex assay
Enterococcus faecalis [5] = experiment: Antibacterial activity against Enterococcus faecalis IID682 after 18 hrs by agar dilution method; format: functional
Enterococcus faecalis [6] = experiment: Antibacterial activity against vancomycin-resistant Enterococcus faecalis KU1856 after 18 hrs by agar dilution method; format: functional
Mus musculus [7] = experiment: Toxicity in ICR mouse assessed as mortality administered as single dose at 200 mg/kg, iv after 7 days; format: organism-based; design: dose 200 mg/kg, route intravenous; conditions: in vivo, 168 h
Staphylococcus aureus [8] = experiment: Antibacterial activity against quinoline-resistant Staphylococcus aureus MS5935 containing double grlA and single gyrA mutation after 18 hrs by agar dilution method; format: functional
Pseudomonas aeruginosa = experiment: Antibacterial activity against Pseudomonas aeruginosa IID1210 after 18 hrs by agar dilution method; format: functional
Staphylococcus aureus [9] = experiment: Antibacterial activity against quinoline-resistant wild type Staphylococcus aureus MS5935 after 18 hrs by agar dilution method; format: functional
Staphylococcus aureus [10] = experiment: Antibacterial activity against quinoline-resistant Staphylococcus aureus MS5935 containing single grlA and single gyrA mutation after 18 hrs by agar dilution method; format: functional
Streptococcus pneumoniae [11] = experiment: Antibacterial activity against Streptococcus pneumoniae type 3 after 18 hrs by agar dilution method; format: functional
Enterococcus faecalis [12] = experiment: Antibacterial activity against quinoline-resistant Enterococcus faecalis No.15 isolate after 18 hrs by agar dilution method; format: functional
Mus musculus [13] = experiment: Toxicity in intracerebroventricularly dosed ICR mouse assessed as induction of convulsion after 2 hrs in absence of fenbufen; format: organism-based; conditions: in vivo, icv_or_intrathecal
Klebsiella pneumoniae = experiment: Antibacterial activity against Klebsiella pneumoniae IID5209 after 18 hrs by agar dilution method; format: functional
Escherichia coli = experiment: Antibacterial activity against Escherichia coli NIHJ JC2 after 18 hrs by agar dilution method; format: functional; conditions: NIHJ JC2, 18 h
Staphylococcus aureus [14] = experiment: Antibacterial activity against Staphylococcus aureus Smith infected in po dosed ICR mouse administered 1 hr after bacterial challenge measured at 7 days post infection; format: functional
Staphylococcus aureus [15] = experiment: Antibacterial activity against quinoline-resistant Staphylococcus aureus MS5935 containing single grlA mutation after 18 hrs by agar dilution method; format: functional
[16] = Inhibition of Staphylococcus aureus MS5935 wild type topoisomerase 4-mediated decatenation activity
Streptococcus pneumoniae [17] = experiment: Antibacterial activity against Streptococcus pneumoniae type 3 infected in po dosed ICR mouse administered 1 hr after bacterial challenge measured at 7 days post infection; format: functional
Mus musculus [18] = experiment: Toxicity in intracerebroventricularly dosed ICR mouse assessed as induction of convulsion after 2 hrs in presence of fenbufen; format: organism-based; conditions: in vivo, icv_or_intrathecal
Staphylococcus aureus [19] = experiment: Antibacterial activity against Staphylococcus aureus Smith after 18 hrs by agar dilution method; format: functional
Mus musculus [20] = experiment: Toxicity in ICR mouse assessed as mortality administered as single dose at 100 mg/kg, iv after 7 days; format: organism-based; design: dose 100 mg/kg, route intravenous; conditions: in vivo, 168 h
Mus musculus [21] = experiment: Phototoxicity in orally dosed ICR mouse assessed as skin erythema after 72 hrs; format: organism-based; conditions: in vivo, po
Streptococcus pneumoniae [22] = experiment: Antibacterial activity against quinoline-resistant Streptococcus pneumoniae no.55 isolate after 18 hrs by agar dilution method; format: functional
DNA gyrase [23] = target: T1, DNA gyrase; experiment: Inhibition of quinoline-resistant Staphylococcus aureus MS5935 DNA gyrase-mediated supercoiling activity; format: protein-complex assay
Staphylococcus aureus [24] = experiment: Antibacterial activity against quinoline-resistant Staphylococcus aureus OITI MR1-1002 isolate after 18 hrs by agar dilution method; format: functional
Streptococcus pneumoniae [25] = experiment: Antibacterial activity against Streptococcus pneumoniae type 3 infected in subcutaneously dosed ICR mouse administered 1 hr after bacterial challenge measured at 7 days post infection; format: functional; conditions: sc
Streptococcus pyogenes = experiment: Antibacterial activity against Streptococcus pyogenes IID692 after 18 hrs by agar dilution method; format: functional
[26] = Inhibition of quinoline-resistant Staphylococcus aureus MS5935 topoisomerase 4-mediated decatenation activity

T1 sequence (P0A0K8 whole entry): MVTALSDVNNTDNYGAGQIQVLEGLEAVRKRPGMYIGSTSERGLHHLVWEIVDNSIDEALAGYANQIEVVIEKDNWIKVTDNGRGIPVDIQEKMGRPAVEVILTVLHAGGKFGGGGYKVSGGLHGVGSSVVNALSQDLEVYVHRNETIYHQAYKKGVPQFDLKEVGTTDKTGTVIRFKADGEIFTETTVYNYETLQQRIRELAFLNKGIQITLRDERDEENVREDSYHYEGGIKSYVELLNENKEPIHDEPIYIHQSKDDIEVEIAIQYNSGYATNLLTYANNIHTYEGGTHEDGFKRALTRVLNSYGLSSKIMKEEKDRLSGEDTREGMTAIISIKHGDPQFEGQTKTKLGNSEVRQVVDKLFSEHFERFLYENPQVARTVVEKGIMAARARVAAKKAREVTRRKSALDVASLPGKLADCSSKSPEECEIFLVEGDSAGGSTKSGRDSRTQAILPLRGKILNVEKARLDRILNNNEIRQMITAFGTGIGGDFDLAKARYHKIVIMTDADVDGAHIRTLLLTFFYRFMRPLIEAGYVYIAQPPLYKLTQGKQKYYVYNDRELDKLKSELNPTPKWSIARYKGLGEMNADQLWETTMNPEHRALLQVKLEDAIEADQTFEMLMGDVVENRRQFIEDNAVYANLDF
T1 sequence (P20831 whole entry): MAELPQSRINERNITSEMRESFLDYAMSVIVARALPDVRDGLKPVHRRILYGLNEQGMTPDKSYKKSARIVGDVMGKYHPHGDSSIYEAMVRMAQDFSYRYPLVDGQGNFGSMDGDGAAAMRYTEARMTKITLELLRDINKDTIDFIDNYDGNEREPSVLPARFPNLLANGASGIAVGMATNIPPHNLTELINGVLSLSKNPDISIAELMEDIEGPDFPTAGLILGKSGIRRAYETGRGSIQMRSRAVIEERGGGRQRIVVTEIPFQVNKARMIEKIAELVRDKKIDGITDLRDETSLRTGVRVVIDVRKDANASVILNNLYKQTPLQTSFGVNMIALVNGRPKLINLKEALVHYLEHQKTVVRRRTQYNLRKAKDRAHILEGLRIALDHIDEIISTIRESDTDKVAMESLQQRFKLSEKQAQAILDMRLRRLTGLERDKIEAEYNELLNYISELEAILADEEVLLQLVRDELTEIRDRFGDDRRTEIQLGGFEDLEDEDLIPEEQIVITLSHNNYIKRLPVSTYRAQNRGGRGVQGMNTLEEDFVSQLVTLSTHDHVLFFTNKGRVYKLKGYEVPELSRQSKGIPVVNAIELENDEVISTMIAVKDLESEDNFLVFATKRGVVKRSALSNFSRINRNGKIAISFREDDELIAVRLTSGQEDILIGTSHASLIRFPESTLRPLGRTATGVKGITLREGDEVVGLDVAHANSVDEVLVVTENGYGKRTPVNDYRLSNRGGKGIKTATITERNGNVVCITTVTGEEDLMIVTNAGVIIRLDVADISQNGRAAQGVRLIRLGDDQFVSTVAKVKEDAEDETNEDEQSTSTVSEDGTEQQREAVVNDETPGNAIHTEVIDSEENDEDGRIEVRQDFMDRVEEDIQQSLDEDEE

SMILES	MIC (Enterococcus faecalis [1]) [µg/mL]	MIC (Haemophilus influenzae) [µg/mL]	MIC (Enterococcus faecalis [5]) [µg/mL]	MIC (Enterococcus faecalis [6]) [µg/mL]	Activity (Mus musculus [7])	MIC (Pseudomonas aeruginosa) [µg/mL]	MIC (Streptococcus pneumoniae [11]) [µg/mL]	MIC (Enterococcus faecalis [12]) [µg/mL]	Activity (Mus musculus [13]) [µg]	MIC (Klebsiella pneumoniae) [µg/mL]	MIC (Escherichia coli) [µg/mL]	Activity (Mus musculus [18]) [µg]	MIC (Staphylococcus aureus [19]) [µg/mL]	Activity (Mus musculus [20])	Activity (Mus musculus [21])	MIC (Streptococcus pneumoniae [22]) [µg/mL]	MIC (Staphylococcus aureus [24]) [µg/mL]	MIC (Streptococcus pyogenes) [µg/mL]	also measured
O=C(O)c1cn2c3c(c(N4C[C@H](CNC5CC5)[C@H](F)C4)c(F)cc3c1=O)OC[C@@H]2CF	0.5 (≈ 1.14 µM)	0.004 (≈ 0.00914 µM)	0.063 (≈ 0.144 µM)	0.5 (≈ 1.14 µM)	Non-toxic	2 (≈ 4.57 µM)	0.016 (≈ 0.0366 µM)	1 (≈ 2.29 µM)	> 40	0.031 (≈ 0.0709 µM)	0.008 (≈ 0.0183 µM)	> 40	0.008 (≈ 0.0183 µM)	Non-toxic	Non-toxic	0.25 (≈ 0.572 µM)	1 (≈ 2.29 µM)	0.031 (≈ 0.0709 µM)	ED50 (Staphylococcus aureus [2]): 0.12 mg/kg; MIC (Staphylococcus aureus [3]): 4 µg/mL (≈ 9.14 µM); IC50 (DNA gyrase [4]): 2.42 µM; MIC (Staphylococcus aureus [8]): 0.5 µg/mL (≈ 1.14 µM); MIC (Staphylococcus aureus [9]): 0.016 µg/mL (≈ 0.0366 µM); MIC (Staphylococcus aureus [10]): 0.25 µg/mL (≈ 0.572 µM); ED50 (Staphylococcus aureus [14]): 0.5 mg/kg; MIC (Staphylococcus aureus [15]): 0.031 µg/mL (≈ 0.0709 µM); IC50 [16]: 1.27 µg/mL (≈ 2.9 µM); ED50 (Streptococcus pneumoniae [17]): 4 mg/kg; IC50 (DNA gyrase [23]): 31.1 µM; ED50 (Streptococcus pneumoniae [25]): 2.9 mg/kg; IC50 [26]: 7 µg/mL (≈ 16 µM)
CCNCC1CCN(c2c(F)cc3c(=O)c(C(=O)O)cn4c3c2OC[C@@H]4C)C1 (stereo partly specified)	16 (≈ 41.1 µM)	–	0.25 (≈ 0.642 µM)	16 (≈ 41.1 µM)	–	4 (≈ 10.3 µM)	0.063 (≈ 0.162 µM)	32 (≈ 82.2 µM)	–	–	0.031 (≈ 0.0796 µM)	–	0.125 (≈ 0.321 µM)	–	–	2 (≈ 5.14 µM)	32 (≈ 82.2 µM)	0.063 (≈ 0.162 µM)	–
C[C@H]1CN(c2c(F)cc3c(=O)c(C(=O)O)cn4c3c2OC[C@@H]4CF)C[C@@H]1CNC1CC1	1 (≈ 2.31 µM)	0.008 (≈ 0.0185 µM)	0.063 (≈ 0.145 µM)	1 (≈ 2.31 µM)	–	4 (≈ 9.23 µM)	0.031 (≈ 0.0715 µM)	1 (≈ 2.31 µM)	40	0.125 (≈ 0.288 µM)	0.016 (≈ 0.0369 µM)	20	0.008 (≈ 0.0185 µM)	Non-toxic	Non-toxic	0.5 (≈ 1.15 µM)	2 (≈ 4.61 µM)	0.031 (≈ 0.0715 µM)	–
C[C@H]1COc2c(N3C[C@H](CNC4CC4)[C@H](F)C3)c(F)cc3c(=O)c(C(=O)O)cn1c23	0.5 (≈ 1.19 µM)	0.004 (≈ 0.00954 µM)	0.063 (≈ 0.15 µM)	0.5 (≈ 1.19 µM)	Non-toxic	2 (≈ 4.77 µM)	0.016 (≈ 0.0381 µM)	0.5 (≈ 1.19 µM)	> 40	0.031 (≈ 0.0739 µM)	0.008 (≈ 0.0191 µM)	> 40	0.008 (≈ 0.0191 µM)	Non-toxic	–	0.125 (≈ 0.298 µM)	1 (≈ 2.38 µM)	0.031 (≈ 0.0739 µM)	–
O=C(O)c1cn2c3c(c(N4CC[C@@H](CNC5CC5)C4)c(F)cc3c1=O)OC[C@@H]2CF	0.5 (≈ 1.19 µM)	0.004 (≈ 0.00954 µM)	0.063 (≈ 0.15 µM)	0.5 (≈ 1.19 µM)	–	2 (≈ 4.77 µM)	0.016 (≈ 0.0381 µM)	1 (≈ 2.38 µM)	10	0.031 (≈ 0.0739 µM)	0.004 (≈ 0.00954 µM)	10	0.008 (≈ 0.0191 µM)	Non-toxic	Non-toxic	0.25 (≈ 0.596 µM)	2 (≈ 4.77 µM)	0.031 (≈ 0.0739 µM)	–
C[C@@H]1CN(c2c(F)cc3c(=O)c(C(=O)O)cn4c3c2OC[C@@H]4C)C[C@@H]1CNC1CC1	1 (≈ 2.41 µM)	0.004 (≈ 0.00963 µM)	0.063 (≈ 0.152 µM)	1 (≈ 2.41 µM)	–	2 (≈ 4.81 µM)	0.016 (≈ 0.0385 µM)	1 (≈ 2.41 µM)	> 40	0.063 (≈ 0.152 µM)	0.016 (≈ 0.0385 µM)	> 40	0.008 (≈ 0.0193 µM)	Toxic	–	0.125 (≈ 0.301 µM)	0.5 (≈ 1.2 µM)	0.016 (≈ 0.0385 µM)	–
C[C@H]1COc2c(N3CC[C@@H](CNC4CC4)C3)c(F)cc3c(=O)c(C(=O)O)cn1c23	0.5 (≈ 1.25 µM)	0.016 (≈ 0.0399 µM)	0.063 (≈ 0.157 µM)	0.5 (≈ 1.25 µM)	Toxic	2 (≈ 4.98 µM)	0.016 (≈ 0.0399 µM)	1 (≈ 2.49 µM)	20	0.063 (≈ 0.157 µM)	0.008 (≈ 0.0199 µM)	20	0.008 (≈ 0.0199 µM)	Non-toxic	–	0.25 (≈ 0.623 µM)	2 (≈ 4.98 µM)	0.016 (≈ 0.0399 µM)	–
